From paper PMC10343660, “Mechanochemical Studies on Coupling of Hydrazines and Hydrazine Amides with Phenolic and Furanyl Aldehydes—Hydrazones with Antileishmanial and Antibacterial Activities” (Molecules, 2023)
≈ marks a conversion by molar mass, not a printed value. Where two headings read alike, the source gives them in different places. Marks after values point to notes of the source that are not given here.

Tests used:
S. aureus ATCC25923 = assay: MIC determination on S. aureus ATCC25923 (microdilution, resazurin); assay type: cell-based, Staphylococcus aureus
E. coli ATCC25922 = assay: MIC determination on E. coli ATCC25922 (microdilution, resazurin); assay type: cell-based, Escherichia coli
[1] = tested on: Mycobacterium tuberculosis H37Rv; assay: MIC determination for Mycobacterium tuberculosis H37Rv (REMA); assay type: cell-based; conditions: for MIC: read-out: M. tuberculosis H37Rv MIC; for MIC90: read-out: minimum inhibitory concentration (MIC90) on M. tuberculosis H37Rv
[2] = tested on: L. donovani intramacrophage amastigotes; assay: In vitro antileishmanial evaluation on intramacrophage amastigotes (RAW 264.7 infected, SYBR Green); assay type: cell-based, Leishmania donovani; conditions: for IC50: read-out: L. donovani Intramacrophage Amastigote IC50 ± SD; for SI (Selectivity Index): CC50 (macrophage RAW 264.7)/IC50 (intramacrophage form of L. donovani)
Experimental: In vitro antileishmanial evaluation on intramacrophage amastigotes. RAW 264.7 macrophages were infected with L. donovani axenic amastigotes according to a ratio of 10 parasites per macrophage. […] The in vitro treatment was applied 24 h post-infection, and the treatment duration was 48 h. […] The activity of the compounds is expressed as IC50, calculated using the ICEstimator version 1.2 software. Miltefosine was used as the reference drug.

[3] = tested on: L. donovani axenic amastigotes (LV9); assay: In vitro antileishmanial evaluation on L. donovani axenic amastigotes (SYBR Green); assay type: cell-based, Leishmania donovani; conditions: read-out: L. donovani Axenic Amastigote IC50 ± SD
Experimental: L. donovani (MHOM/ET/67/HU3, also called LV9) promastigotes and axenic amastigotes were maintained according to the protocols previously described.
In vitro antileishmanial evaluation on L. donovani axenic amastigotes. This evaluation was performed using the SYBR Green method as previously described. IC50 values were calculated using the ICEstimator version 1.2 software (http://www.antimalarial-icestimator.net/runregression1.2.htm, accessed on 5 April 2023). Miltefosine was used as the reference drug.

S. aureus ATCC29213 = assay: MIC determination on S. aureus ATCC29213; assay type: cell-based, Staphylococcus aureus; conditions: value in parentheses
[4] = Staphylococcus aureus, ATCC25923, value outside parentheses, read-out: S. aureus ATCC25923 MIC
[5] = Escherichia coli, ATCC25922, value outside parentheses, read-out: E. coli ATCC25922 MIC
[6] = Mycobacterium tuberculosis, H37RV, 168 h, REMA, 7 days
[7] = Leishmania donovani, RAW264.7, RAW 264.7 macrophages infected, treatment 48 h
[8] = Leishmania donovani, LV9 axenic amastigote forms
[9] = Staphylococcus aureus, ATCC25923, 24 h, value outside parentheses, read-out: S. aureus ATCC25923 MIC
[10] = Escherichia coli, ATCC25922, 24 h, value outside parentheses, read-out: E. coli ATCC25922 MIC
[11] = value outside parentheses, read-out: S. aureus ATCC25923 MIC
[12] = Mycobacterium tuberculosis, H37RV, range for the active compounds
[13] = Staphylococcus aureus, ATCC29213
[14] = value outside parentheses, read-out: E. coli ATCC25922 MIC

## O=[N+]([O-])c1ccc(-c2ccc(/C=N/Nc3ccc(Br)cn3)o2)cc1 [Compound 13, 5-Bromo-2-[(2E)-2-{[5-(4-nitrophenyl)furan-2-yl]methylidene}hydrazin-1-yl]pyridine]
S. aureus ATCC25923; [4]
  MIC: > 661 µM
E. coli ATCC25922; [5]
  MIC: > 661 µM
[1]; [6]
  MIC: > 100 µM
[2]; [7]
  IC50: > 100 µM
[3]; [8]
  IC50: 54.3 ± 4.5 µM

## O=[N+]([O-])c1ccc(-c2ccc(/C=N/Nc3nccc(C(F)(F)F)n3)o2)cc1 [Compound 14, 2-[(2E)-2-{[5-(4-Nitrophenyl)furan-2-yl]methylidene}hydrazin-1-yl]-4-(trifluoromethyl) pyrimidine]
S. aureus ATCC25923; [9]
  MIC: > 669 µM
E. coli ATCC25922; [10]
  MIC: > 669 µM
other
  melting point: 212.4 to 214.2 °C
[1]; [6]
  MIC: > 100 µM
[2]
  SI (Selectivity Index): >8
[2]; [7]
  IC50: 11.9 ± 1.1 µM
[3]; [8]
  IC50: 2.9 ± 0.2 µM

## O=C1CSC(=S)N1/N=C/C=C/c1ccc([N+](=O)[O-])o1 [Compound 6, 3-{(E)-[(2E)-3-(5-Nitro-2-furyl)-2-propen-1-ylidene]amino}-2-thioxo-1,3-thiazolidin-4-one]
S. aureus ATCC25923; [4]
  MIC: 13 µM (≈ 3.87 µg/mL)
S. aureus ATCC25923; [11]
  MIC: 13 µM (≈ 3.87 µg/mL)
E. coli ATCC25922; [5]
  MIC: > 861 µM
[1]; [6]
  MIC: 4.2 µM (≈ 1.25 µg/mL)
[1]; [12]
  MIC90: 0.6 to 7.4 µM (≈ 0.178 to 2.2 µg/mL)
S. aureus ATCC29213; [13]
  MIC: 7 µM (≈ 2.08 µg/mL)
S. aureus ATCC29213
  MIC: 7 µM (≈ 2.08 µg/mL)
[2]
  SI (Selectivity Index): >125
[2]; [7]
  IC50: 0.8 ± 0.1 µM
[3]; [8]
  IC50: 0.7 ± 0.1 µM

## [H]/N=C(/N)N[C@H]1[C@H](O)[C@@H](O)[C@H](O[C@@H]2O[C@@H](C)[C@](O)(C=O)[C@H]2O[C@@H]2O[C@@H](CO)[C@H](O)[C@@H](O)[C@@H]2NC)[C@@H](N/C(N)=N\[H])[C@@H]1O [Streptomycin, reference compound]
[1]; [6]
  MIC: 0.4 µM (≈ 0.233 µg/mL)

## O=C(N/N=C/c1ccc(-c2ccc([N+](=O)[O-])cc2)o1)OCc1ccccc1 [Compound 17, N′-[(E)-[5-(4-nitrophenyl)furan-2-yl]methylidene](benzyloxy)carbohydrazide]
S. aureus ATCC25923; [11]
  MIC: >701 µM
E. coli ATCC25922; [14]
  MIC: >701 µM
[1]; REMA, 7 days
  MIC: >100 µM
[2]; RAW 264.7 macrophages infected, treatment 48 h
  IC50: 32.4 ± 2.8 µM
[3]; LV9 axenic amastigote forms
  IC50: 12.2 ± 1.6 µM

## COc1cc(/C=N/NC(=O)c2ccncc2)ccc1O [Compound 1, N′-[(E)-(4-Hydroxy-3-methoxyphenyl)methylene]isonicotinohydrazide]
S. aureus ATCC25923; [4]
  MIC: > 944 µM
E. coli ATCC25922; [5]
  MIC: > 944 µM
[1]; [6]
  MIC: 0.6 µM (≈ 0.163 µg/mL)
[1]; [12]
  MIC90: 0.6 to 7.4 µM (≈ 0.163 to 2.01 µg/mL)
[2]
  SI (Selectivity Index): >2.5
[2]; [7]
  IC50: 40.2 ± 3.1 µM
[3]; [8]
  IC50: 24.9 ± 2.9 µM

## O=[N+]([O-])c1ccc(-c2ccc(/C=N/Nc3nncc4ccccc34)o2)cc1 [Compound 9, 1-[(2E)-2-{[5-(4-Nitrophenyl)-2-furyl]methylene}hydrazino]phthalazine]
S. aureus ATCC25923; [4]
  MIC: > 711 µM
E. coli ATCC25922; [5]
  MIC: > 711 µM
other
  melting point: 239.5 to 241.5 °C
[1]; [6]
  MIC: > 100 µM
[2]
  SI (Selectivity Index): >333
[2]; [7]
  IC50: 0.3 ± 0.1 µM
[3]; [8]
  IC50: 0.2 ± 0.1 µM

## O=C(N/N=C/C=C/c1ccc([N+](=O)[O-])o1)c1ccncc1 [Compound 3, N′-[(1E,2E)-3-(5-Nitro-2-furyl)-2-propen-1-ylidene]isonicotinohydrazide]
S. aureus ATCC25923; [4]
  MIC: 1.75 µM (≈ 0.501 µg/mL)
S. aureus ATCC25923; [11]
  MIC: 1.75 µM (≈ 0.501 µg/mL)
E. coli ATCC25922; [5]
  MIC: 28 µM (≈ 8.01 µg/mL)
E. coli ATCC25922; [14]
  MIC: 28 µM (≈ 8.01 µg/mL)
other
  melting point: 252.1 to 254 °C
[1]; [6]
  MIC: 1 µM (≈ 0.286 µg/mL)
[1]; [12]
  MIC90: 0.6 to 7.4 µM (≈ 0.172 to 2.12 µg/mL)
S. aureus ATCC29213; [13]
  MIC: 7 µM (≈ 2 µg/mL)
S. aureus ATCC29213
  MIC: 7 µM (≈ 2 µg/mL)
[2]
  SI (Selectivity Index): >200
[2]; [7]
  IC50: 0.5 ± 0.1 µM
[3]; [8]
  IC50: 0.6 ± 0.1 µM

## O=[N+]([O-])c1ccc(-c2ccc(/C=N/Nc3cnccn3)o2)cc1 [Compound 15, 2-[(2E)-2-{[5-(4-nitrophenyl)furan-2-yl]methylidene}hydrazin-1-yl]pyrazine]
S. aureus ATCC25923; [9]
  MIC: > 678 µM
E. coli ATCC25922; [10]
  MIC: > 678 µM
other
  melting point: 272.2 to 274 °C
[1]; [6]
  MIC: > 100 µM
[2]
  SI (Selectivity Index): >4
[2]; [7]
  IC50: 23.3 ± 3.1 µM
[3]; [8]
  IC50: 9.9 ± 0.8 µM

## CCCCCCCCCCCCCCCCOP(=O)([O-])OCC[N+](C)(C)C [Miltefosine, reference compound]
[2]
  SI (Selectivity Index): 9 ^a
[2]; [7]
  IC50: 2.2 ± 0.3 µM
[3]; [8]
  IC50: 1.5 ± 0.3 µM

## O=C(N/N=C/c1ccc(-c2ccc([N+](=O)[O-])cc2)o1)c1ccncc1 [Compound 8, N′-{(E)-[5-(4-Nitrophenyl)-2-furyl]methylene}isonicotinohydrazide]
S. aureus ATCC25923; Staphylococcus aureus, ATCC25923, read-out: S. aureus ATCC25923 MIC
  MIC: > 761 µM
E. coli ATCC25922; Escherichia coli, ATCC25922, read-out: E. coli ATCC25922 MIC
  MIC: > 761 µM
[1]; Mycobacterium tuberculosis, H37RV, 168 h
  MIC: 0.9 µM (≈ 0.303 µg/mL)
[1]; Mycobacterium tuberculosis, H37RV
  MIC90: 0.6 to 7.4 µM (≈ 0.202 to 2.49 µg/mL)
[2]
  SI (Selectivity Index): >2
[2]; Leishmania donovani, RAW264.7, 48 h
  IC50: 36.2 ± 1.4 µM
[3]; Leishmania donovani
  IC50: 16.2 ± 1.2 µM

## O=C1CSC(=S)N1/N=C/c1ccc(-c2ccc([N+](=O)[O-])cc2)o1 [Compound 11, 3-[(E)-{[5-(4-Nitrophenyl)-2-furyl]methylene}amino]-2-thioxo-1,3-thiazolidin-4-one]
S. aureus ATCC25923; [4]
  MIC: > 737 µM
E. coli ATCC25922; [5]
  MIC: > 737 µM
other
  melting point: 175 °C
[1]; [6]
  MIC: > 100 µM
[2]; [7]
  IC50: > 100 µM
[3]; [8]
  IC50: 5.2 ± 0.3 µM

## O=[N+]([O-])c1ccc(-c2ccc(/C=N/Nc3nc4ccccc4s3)o2)cc1 [Compound 10, 2-[(2E)-2-{[5-(4-Nitrophenyl)-2-furyl]methylene}hydrazino]-1,3-benzothiazole]
S. aureus ATCC25923; [4]
  MIC: > 703 µM
E. coli ATCC25922; [5]
  MIC: > 703 µM
other
  melting point: 271.9 °C
[1]; [6]
  MIC: > 100 µM
[2]; [7]
  IC50: 5.8 ± 1 µM
[3]; [8]
  IC50: 0.7 ± 0.1 µM

## NNC(=O)c1ccncc1 [Isoniazid, reference compound]
[1]; [6]
  MIC: 0.4 µM (≈ 0.0549 µg/mL)

## O=[N+]([O-])c1ccc(/C=C/C=N/NN2Cc3ccccc3C=N2)o1 [Compound 4, 2-{(2E)-2-[(2E)-3-(5-Nitro-2-furyl)-2-propen-1-ylidene]hydrazino}phthalazine]
S. aureus ATCC25923; [4]
  MIC: > 828 µM
E. coli ATCC25922; [5]
  MIC: > 828 µM
[1]; [6]
  MIC: 129 µM (≈ 40.2 µg/mL)
[2]
  SI (Selectivity Index): >166
[2]; [7]
  IC50: 0.6 ± 0.1 µM
[3]; [8]
  IC50: 1.9 ± 0.3 µM

## O=[N+]([O-])c1ccc(/C=C/C=N/Nc2nc3ccccc3s2)o1 [Compound 5, 2-{(2E)-2-[(2E)-3-(5-Nitro-2-furyl)-2-propen-1-ylidene]hydrazino}-1,3-benzothiazole]
S. aureus ATCC25923; [4]
  MIC: > 814 µM
E. coli ATCC25922; [5]
  MIC: > 814 µM
other
  melting point: 243.1 °C
[1]; [6]
  MIC: 1 µM (≈ 0.314 µg/mL)
[1]; [12]
  MIC90: 0.6 to 7.4 µM (≈ 0.189 to 2.33 µg/mL)
[2]
  SI (Selectivity Index): >8
[2]; [7]
  IC50: 12.4 ± 1.2 µM
[3]; [8]
  IC50: 2.3 ± 0.3 µM

## COc1cc(/C=N/NC(=O)c2ccc(O)cc2)ccc1O [Compound 2, 4-hydroxy-N′-[(E)-(4-hydroxy-3-methoxyphenyl)methylidene]benzohydrazide]
S. aureus ATCC25923; [4]
  MIC: > 894 µM
E. coli ATCC25922; [5]
  MIC: > 894 µM
[1]; [6]
  MIC: > 100 µM
[2]
  SI (Selectivity Index): >17
[2]; [7]
  IC50: 5.9 ± 0.9 µM
[3]; [8]
  IC50: 2.1 ± 0.1 µM

## O=[N+]([O-])c1ccc(-c2ccc(/C=N/Nc3nc4ccc(Cl)cc4o3)o2)cc1 [Compound 16, 6-chloro-2-[(2E)-2-{[5-(4-nitrophenyl)furan-2-yl]methylidene}hydrazin-1-yl]-1,3-benzoxazole]
S. aureus ATCC25923; [9]
  MIC: > 828 µM
E. coli ATCC25922; [10]
  MIC: > 828 µM
other
  melting point: 190.9 °C
[1]; [6]
  MIC: > 100 µM
[2]; [7]
  IC50: > 100 µM
[3]; [8]
  IC50: > 100 µM

## O=C(O)c1cn(C2CC2)c2cc(N3CCNCC3)c(F)cc2c1=O [Ciprofloxacin, reference compound]
S. aureus ATCC25923; [4]
  MIC: 3 µM (≈ 0.994 µg/mL)
E. coli ATCC25922; [5]
  MIC: 0.75 µM (≈ 0.249 µg/mL)
S. aureus ATCC29213; [13]
  MIC: 5 µM (≈ 1.66 µg/mL)
